In publication PMC13308190, “Endothelial progenitor cell susceptibility to DNA damaging and DDR-modulating compounds determines endothelial differentiation accuracy” (Stem Cell Research & Therapy, 2026):

What was measured:
Type in all cases: cell-based, mouse
[1] = tested on: EC d4; test: EdU incorporation (S-phase activity); settings: EC d4 48 h
Description: S-phase activity of cells was monitored by measuring EdU incorporation using the EdU-Click 488 assay according to the manufacturer’s protocol. Briefly, cells were pulse-treated with 5-ethynyl-2′-deoxyuridine (EdU) for 3 h. Alexa Fluor 488-conjugated reaction cocktail was added (30 min, RT) and nuclei were counterstained with DAPI. The percentage of EdU-positive area/DAPI-positive area was calculated by fluorescence microscopy (Olympus BX43, 20x objective).

[2] = tested on: EC d4 (endothelial progenitor cells); test: RT-qPCR mRNA expression; settings: for Ccl2 mRNA / E-selectin mRNA / Icam-1 mRNA / Vcam-1 mRNA / eNos mRNA / iNos mRNA: Fig 8D; for Cdkn1a mRNA / Cdkn2a mRNA / Glb1 mRNA / Il6 mRNA / Il8 mRNA / Tp53 mRNA: Fig 7B
Description: Total RNA was purified using the RNeasy Mini Kit (Qiagen, Hilden, Germany). Reverse transcriptase (RT) reaction was performed with the HighCapacity cDNA Reverse Transcription Kit (Applied Biosystems, Darmstadt, Germany) using 900–2000 ng of RNA. Quantitative RT-qPCR analysis was performed using following conditions: (1) 95 °C–10 min; (2) 45 amplification cycles with 95 °C–15 s, 55 °C–15 s, and 72 °C–17 s; (3) 95 °C–1 min, 55 °C–1 min, 65 °C–5 s. If not stated otherwise, analyses were performed in technical triplicates using pooled samples from two independent experiments (each performed with biological duplicates) by use of a CFX96 cycler (BioRad) and the SensiMix SYBR Kit (Bioline, London, UK). The primers used for mRNA expression analyses are listed in Supplementary Table 1. To ensure the specificity of the amplification product, melting curves were recorded at the end of the run. mRNA expression levels were normalized to β-Actin and Gapdh. Relative mRNA expression in mESC or corresponding untreated controls was set to 1.0. Only changes in gene expression of ≤ 0.5- and ≥ 2-fold were considered as biologically relevant.
To monitor prototypical functions of endothelial cells, the uptake of fluorescent 1,1-dioctadecyl-3,3,3,3-tetra-methylindocarbocyanine-labeled acetylated LDL (Dil-acLDL) was examined. Briefly, cells were incubated with Dil-acLDL (10 µg/ml, 4 h, 37 °C). After fixation (3.7% cold formaldehyde/PBS (15 min, RT) nuclei were counterstained with DAPI. The uptake of DiI-acLDL was analyzed by fluorescence microscopy (Olympus BX43, 20x objective). Additionally, the response of differentiated EC to inflammatory cytokines was measured. After treatment with a pro-inflammatory cytokine mixture (TNFα/IL-1β, 10 ng/mL) for 1 h, mRNA expression of activated EC markers E-selectin, Icam-1, Vcam-1, Ccl2, eNos, iNos was analyzed (RT-qPCR).

[3] = tested on: EC d4; test: VE-cadherin cell-cell junction immunostaining; settings: EC d4 treated 48 h
[4] = tested on: EC d6; test: Mitochondrial membrane potential (TMRM-MitoTracker Green); settings: EC d6 treated 24 h
Description: Mitochondrial membrane potential (ΔΨm) was analyzed by live-cell imaging using TMRM-MitoTracker Green co-staining. Cells were seeded and differentiated on Poly-D-Lysine-fibronectine-coated live-imaging dishes. For staining, cells were incubated with 200nM MitoTracker Green (Invitrogen) and 50 nM TMRM (Invitrogen) in DMEM (30 min, 37 °C, 5% CO2). After washing with PBS, live-cell microscopy was performed using a spinning disc confocal microscope (PerkinElmer) equipped with a 60x oil-immersion objective (N.A = 1.49) and a Hamamatsu C9100 camera (1000 × 1000 pixel) (excitation (MitoTracker Green): 488 nm, excitation (TMRM): 561 nm). The cells were kept at 37 °C in OptiMEM supplemented with 10 mM HEPES during imaging. The images were obtained at emission wavelength of 527 nm (W55) and 615 nm (W70) for 488 nm and 561 nm excitation, respectively.

[5] = tested on: EC d4; test: ZO1 tight junction immunofluorescence; settings: EC d4 treated 48 h
[6] = tested on: mESC; test: AlamarBlue cell viability; settings: 24–72 h treatment
Description: (§1) Drug-induced cytotoxicity was monitored by analyzing cell viability using the AlamarBlue assay, which measures the reduction of the non-fluorescent dye resazurin (Sigma [Steinheim, Germany]) to fluorescent resorufin by living (i.e. metabolically active) cells. Fluorescence was measured in quadruplicates (excitation: 535 nm, emission: 590 nm (Tecan infinite 200, Tecan, Männedorf, Switzerland)). Relative cell viability of the untreated control was set to 100%.

[7] = tested on: EC d4 (endothelial progenitor cells); test: AlamarBlue cell viability; settings: 48 h treatment
Description: as §1

[8] = EC d4 + 5 µM 48 h, analysed in EC d6
[9] = EC d4 + 5 µM 48 h, then + I/T (IL-1β/TNFα 10 ng/ml, 1 h)
[10] = EC d4 + 15 µM 48 h, analysed day 6, Fig 1C
[11] = EC d4 + 15 µM 48 h, analysed in EC d6
[12] = EC d4 + 15 µM 48 h, then + I/T (IL-1β/TNFα 10 ng/ml, 1 h)

With O=c1c2ccccc2nc(/C=C/c2cccnc2)n1Cc1ccccc1 [B02] the “S-phase activity (EdU-positive cells)” value [1] was “decrease in S-phase activity”, the “Ccl2 mRNA” value [2, 8] was 2.96 Fold of untreated control and the “E-selectin mRNA” value [2, 8] was 120.46 Fold of untreated control. For the same molecule, the “Icam-1 mRNA” value [2, 8] was 3.12 Fold of untreated control, the “Vcam-1 mRNA” value [2, 8] was 0.19 Fold of untreated control and the “eNos mRNA” value [2, 8] was 153.40 Fold of untreated control. The “iNos mRNA” value [2, 8] was 2.01 Fold of untreated control, the “Ccl2 mRNA” value [2, 9] was 279.77 Fold of untreated control and the “E-selectin mRNA” value [2, 9] was 257.65 Fold of untreated control. The “Icam-1 mRNA” value [2, 9] was 9.69 Fold of untreated control, the “Vcam-1 mRNA” value [2, 9] was 0.36 Fold of untreated control and the “eNos mRNA” value [2, 9] was 184.04 Fold of untreated control. The “iNos mRNA” value [2, 9] was 2.26 Fold of untreated control, the “Cdkn1a mRNA” value ([2]; EC d4 + 5 µM 48 h) was 1.71 Fold of untreated control and the “Cdkn2a mRNA” value ([2]; EC d4 + 5 µM 48 h) was 1.24 Fold of untreated control. For the same molecule, the “Glb1 mRNA” value ([2]; EC d4 + 5 µM 48 h) was 1.45 Fold of untreated control, the “Il6 mRNA” value ([2]; EC d4 + 5 µM 48 h) was 0.80 Fold of untreated control and the “Il8 mRNA” value ([2]; EC d4 + 5 µM 48 h) was 0.83 Fold of untreated control. For the same molecule, the “Tp53 mRNA” value ([2]; EC d4 + 5 µM 48 h) was 0.98 Fold of untreated control, the “Flk1 mRNA” value [2, 10] was 6.99 Fold of mESC and the “Nanog mRNA” value [2, 10] was 0.03 Fold of mESC. For the same molecule, the “Oct4 mRNA” value [2, 10] was 0.01 Fold of mESC, the “Pecam1 mRNA” value [2, 10] was 0.62 Fold of mESC and the “Tie1 mRNA” value [2, 10] was 29.11 Fold of mESC. The “VE-cad mRNA” value [2, 10] was 484.74 Fold of mESC, the “Ccl2 mRNA” value [2, 11] was 0.38 Fold of untreated control and the “E-selectin mRNA” value [2, 11] was 126.11 Fold of untreated control. The “Icam-1 mRNA” value [2, 11] was 1.02 Fold of untreated control, the “Vcam-1 mRNA” value [2, 11] was 0.08 Fold of untreated control and the “eNos mRNA” value [2, 11] was 47.93 Fold of untreated control. For the same molecule, the “iNos mRNA” value [2, 11] was 0.43 Fold of untreated control, the “Ccl2 mRNA” value [2, 12] was 84.86 Fold of untreated control and the “E-selectin mRNA” value [2, 12] was 165.16 Fold of untreated control. The “Icam-1 mRNA” value [2, 12] was 2.52 Fold of untreated control, the “Vcam-1 mRNA” value [2, 12] was 0.12 Fold of untreated control and the “eNos mRNA” value [2, 12] was 55.08 Fold of untreated control. The “iNos mRNA” value [2, 12] was 0.33 Fold of untreated control, the “Brca1 mRNA” value ([2]; EC d4 + 15 µM 48 h, Fig 5C) was 0.27 Fold of mESC and the “Chk1 mRNA” value ([2]; EC d4 + 15 µM 48 h, Fig 5C) was 0.92 Fold of mESC. The “Rad51 mRNA” value ([2]; EC d4 + 15 µM 48 h, Fig 5C) was 0.19 Fold of mESC, the “Pgc1a mRNA” value ([2]; EC d4 + 15 µM 48 h, Fig 6D) was 0.11 Fold of untreated control and the “Cdkn1a mRNA” value ([2]; EC d4 + 15 µM 48 h) was 2.57 Fold of untreated control. The “Cdkn2a mRNA” value ([2]; EC d4 + 15 µM 48 h) was 1.39 Fold of untreated control, the “Glb1 mRNA” value ([2]; EC d4 + 15 µM 48 h) was 2.55 Fold of untreated control and the “Il6 mRNA” value ([2]; EC d4 + 15 µM 48 h) was 1.35 Fold of untreated control. The “Il8 mRNA” value ([2]; EC d4 + 15 µM 48 h) was 0.85 Fold of untreated control, the “Tp53 mRNA” value ([2]; EC d4 + 15 µM 48 h) was 0.72 Fold of untreated control and the “Cldn5 mRNA” value ([2]; EC d4 + 15 µM 48 h, Fig 8C) was 0.18 Fold of EC d4 or d6. The “Ocln mRNA” value ([2]; EC d4 + 15 µM 48 h, Fig 8C) was 1.16 Fold of EC d4 or d6, the “Tjp1 mRNA” value ([2]; EC d4 + 15 µM 48 h, Fig 8C) was 1.26 Fold of EC d4 or d6 and the “Ldlr mRNA” value ([2]; EC d4 + 15 µM 48 h, Fig 8F) was 1.78 Fold of untreated control. For the same molecule, the “VE-cadherin cell-cell junctions in EC d6 differentiated from treated EC d4” value [3] was “did not trigger defects”, the mitochondrial membrane potential [4] was “significantly reduced” and the “ZO1 containing tight junctions in EC d6 differentiated from treated EC d4” value [5] was “did not affect”. The IC50 [6] was roughly 20 µM and the “susceptibility (cell viability) of EC d4 as compared to both mESC and EC d6” value [7] was “not observed”.
